According to patent US9273057B2 (Bristol-Myers Squibb Company, priority 2012, dated 2016):
Structures can show the parent of a compound that is named as a salt.

Biological target: CK2A1 (CK2α/β) (Homo sapiens, UniProt P68400)
Experiment: CK2 kinase assay, CK2A1 (CK2α/β)
Format: biochemical
Settings: Table A; read-out: CK2A1 (CK2α/β) (IC50)

Sequence of CK2A1 (CK2α/β) (P68400 whole entry, species assumed): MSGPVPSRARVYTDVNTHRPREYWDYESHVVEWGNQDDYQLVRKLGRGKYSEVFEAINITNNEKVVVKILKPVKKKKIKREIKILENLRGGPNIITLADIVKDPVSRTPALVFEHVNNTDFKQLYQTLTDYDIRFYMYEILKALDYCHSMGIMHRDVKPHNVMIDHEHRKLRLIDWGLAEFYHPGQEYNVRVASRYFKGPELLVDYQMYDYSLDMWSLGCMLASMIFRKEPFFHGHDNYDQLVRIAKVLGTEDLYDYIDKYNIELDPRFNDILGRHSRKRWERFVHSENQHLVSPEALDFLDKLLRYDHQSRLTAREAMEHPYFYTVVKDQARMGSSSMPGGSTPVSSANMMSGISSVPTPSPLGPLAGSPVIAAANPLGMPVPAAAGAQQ
Sequence of CK2A1 (CK2α/β) (P67870 whole entry partner, species assumed): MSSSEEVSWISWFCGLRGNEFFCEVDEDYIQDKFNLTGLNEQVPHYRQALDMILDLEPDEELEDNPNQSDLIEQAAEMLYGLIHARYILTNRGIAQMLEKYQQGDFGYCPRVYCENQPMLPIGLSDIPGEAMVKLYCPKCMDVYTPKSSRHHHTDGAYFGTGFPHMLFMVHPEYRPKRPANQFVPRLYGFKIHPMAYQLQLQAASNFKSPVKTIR

SMILES	IC50 [nM]
CCNc1nc(Nc2ccc3c(c2)c(C#N)cn3C2CCN(C3COCC3O)CC2)nn2c(C#N)cnc12 (racemic) [Example 825, (+/−)-2-((3-cyano-1-(1-(4-hydroxytetrahydrofuran-3-yl)piperidin-4-yl)-1H-indol-5-yl)amino)-4-(ethylamino)imidazo[2,1-f][1,2,4]triazine-7-carbonitrile]	0.3
CCNc1nc(Nc2cc(C#N)cc(N3CC[C@@H]4[C@@H](C3)OC(=O)N4C3COC3)c2Cl)nn2c(C#N)cnc12 (racemic) [Example 838, (+/−)-2-((2-chloro-5-cyano-3-((3aR,7aR)-1-(oxetan-3-yl)-2-oxohexahydrooxazolo[5,4-c]pyridin-5(2H)-yl)phenyl)amino)-4-(ethylamino)imidazo[2,1-f][1,2,4]triazine-7-carbonitrile]	0.54
CN(C)C(=O)C1CN(c2cc(C#N)cc(Nc3nc(NC4CC4)c4ncc(C#N)n4n3)c2Cl)CCN1CC(O)CF (single isomer, unassigned) [Example 315, (+/−) 4-(2-chloro-5-cyano-3-((7-cyano-4-(cyclopropylamino)imidazo [2,1-f][1,2,4]triazin-2-yl)amino)phenyl)-1-(3-fluoro-2-hydroxypropyl)-N,N-dimethyl-2-piperazinecarboxamide]	0.37
CN(C)C(=O)C1CN(c2cc(C#N)cc(Nc3nc(NC4CC4)c4ncc(C#N)n4n3)c2Cl)CCN1CC(O)CF (single isomer, unassigned) [Example 316, (+/−) 4-(2-chloro-5-cyano-3-((7-cyano-4-(cyclopropylamino)imidazo [2,1-f][1,2,4]triazin-2-yl)amino)phenyl)-1-(3-fluoro-2-hydroxypropyl)-N,N-dimethyl-2-piperazinecarboxamide]	1.87
N#Cc1cc(Nc2nc(NC3CC3)c3ncc(C#N)n3n2)c(Cl)c(C2CCN(C3CCC3O)CC2)c1 (single isomer, unassigned) [Example 645, Cis and trans 2-((2-chloro-5-cyano-3-(1-(2-hydroxycyclobutyl)piperidin-4-yl)phenyl)amino)-4-(cyclopropylamino)imidazo[2,1-f][1,2,4]triazine-7-carbonitrile]	1.75
N#Cc1cc(Nc2nc(NC3CC3)c3ncc(C#N)n3n2)c(Cl)c(C2CCN(C3CCC3O)CC2)c1 (single isomer, unassigned) [Example 646, Cis and trans 2-((2-chloro-5-cyano-3-(1-(2-hydroxycyclobutyl)piperidin-4-yl)phenyl)amino)-4-(cyclopropylamino)imidazo[2,1-f][1,2,4]triazine-7-carbonitrile]	1.48
N#Cc1cc(Nc2nc(NC3CC3)c3ncc(C#N)n3n2)c(Cl)c([C@H]2CCC[C@@H](N3CC(F)C3)C2)c1 (single isomer, unassigned) [Example 729]	1.68
N#Cc1cc(Nc2nc(NC3CC3)c3ncc(C#N)n3n2)c(Cl)c([C@H]2CCC[C@@H](N3CC(O)C3)C2)c1 (single isomer, unassigned) [Example 730]	1.22
N#Cc1cc(Nc2nc(NC3CC3)c3ncc(C#N)n3n2)c(Cl)c([C@H]2CCC[C@@H](N3CC(O)C3)C2)c1 (single isomer, unassigned) [Example 731]	1.46
CC(CC(C)c1cc(Cl)c(Nc2nc(NC3CC3)c3ncc(C#N)n3n2)cc1C#N)NCCC(F)(F)F (single isomer, unassigned) [Example 734, 2-[(2-chloro-5-cyano-4-{4-[(3,3,3-trifluoropropyl)amino]pentan-2-yl}phenyl)amino]-4-(cyclopropylamino) imidazo[2,1-f][1,2,4]triazine-7-carbonitrile]	6.07
CC(CC(C)c1cc(Cl)c(Nc2nc(NC3CC3)c3ncc(C#N)n3n2)cc1C#N)NCCC(F)(F)F (single isomer, unassigned) [Example 735, 2-[(2-chloro-5-cyano-4-{4-[(3,3,3-trifluoropropyl)amino]pentan-2-yl}phenyl)amino]-4-(cyclopropylamino)imidazo [2,1-f][1,2,4]triazine-7-carbonitril]	4.37
COC(=O)N[C@H]1CCN(c2cc(C#N)cc(Nc3nc(NC4CC4)c4ncc(C#N)n4n3)c2Cl)C[C@@H]1NC1COC1 (single isomer, unassigned) [Example 744]	1.12
COC(=O)N[C@H]1CCN(c2cc(C#N)cc(Nc3nc(NC4CC4)c4ncc(C#N)n4n3)c2Cl)C[C@H]1NC1COC1 (single isomer, unassigned) [Example 745]	1.24
CCNc1nc(-n2cc([C@H]3C[C@@H]3CN(C)C)c3ccc(C#N)cc32)nn2c(C#N)cnc12 (single isomer, unassigned) [Example 774]	4.05
CCNc1nc(-n2cc([C@@H]3C[C@H]3CN(C)C)c3ccc(C#N)cc32)nn2c(C#N)cnc12 (single isomer, unassigned) [Example 775]	2.35
CCNc1nc(Nc2cc(C#N)cc(N3CC[C@@H]4[C@@H](C3)OC(=O)N4[C@H]3CCOC3)c2Cl)nn2c(C#N)cnc12 (single isomer, unassigned) [Example 841]	2.31
CCNc1nc(Nc2cc(C#N)cc(N3CC[C@@H]4[C@@H](C3)OC(=O)N4[C@H]3CCOC3)c2Cl)nn2c(C#N)cnc12 (single isomer, unassigned) [Example 842]	2.05
CCNc1nc(Nc2cc(C#N)cc(N3CC[C@@H]4[C@@H](C3)OC(=O)N4[C@H]3CCOC3)c2Cl)nn2c(C#N)cnc12 (single isomer, unassigned) [Example 843]	2.16
CCNc1nc(Nc2cc(C#N)cc(N3CC[C@@H]4[C@@H](C3)OC(=O)N4[C@H]3CCOC3)c2Cl)nn2c(C#N)cnc12 (single isomer, unassigned) [Example 844]	1.83
COC(=O)N[C@H]1CN(C2CN(c3cc(C#N)cc(Nc4nc(NC5CC5)c5ncc(C#N)n5n4)c3Cl)C2)CC1OC (stereo in doubt) [Example 298, methyl ((3S,4R)-1-(1-(2-chloro-5-cyano-3-((7-cyano-4-(cyclopropylamino)imidazo[2,1-f][1,2,4]triazin-2-yl)amino)phenyl)-3-azetidinyl)-4-methoxy-3-pyrrolidinyl)carbamate]	0.49
CO[C@@H]1CN(c2cc(C#N)cc(Nc3nc(NC4CC4)c4ncc(C#N)n4n3)c2Cl)CC1NC1COC1 (stereo in doubt) [Example 302, 2-((2-chloro-5-cyano-3-((3R,4S)-3-methoxy-4-(oxetan-3-ylamino)pyrrolidin-1-yl)phenyl)amino)-4-(cyclopropylamino)imidazo[2,1-f][1,2,4]triazine-7-carbonitrile, HCl]	1.7
CCNc1nc(Nc2cc(C#N)cc(N3CC(C)[C@H](NC(=O)OC)C3)c2Cl)nn2c(C#N)cnc12 (stereo in doubt) [Example 336, methyl ((3S,4R)-1-(2-chloro-5-cyano-3-((7-cyano-4-(ethylamino)imidazo[2,1-f][1,2,4]triazin-2-yl)amino)phenyl)-4-methyl-3-pyrrolidinyl)carbamate]	0.74
CCNc1nc(Nc2cc(C#N)cc(N3CCN(CC(C)O)CC3)c2Cl)nn2c(C#N)cnc12 (stereo in doubt) [Example 429, 2-((2-chloro-5-cyano-3-(4-((2R)-2-hydroxypropyl)-1-piperazinyl)phenyl)amino)-4-(ethylamino)imidazo[2,1-f][1,2,4]triazine-7-carbonitrile]	1.28
N#Cc1cc(Nc2nc(NC3CC3)c3ncc(C#N)n3n2)c(Cl)c(N2CC[C@H]3[C@H](CCN3C3CS(=O)(=O)CC3O)C2)c1 (stereo in doubt) [Example 453, 2-((2-chloro-5-cyano-3-(1-((3S,4S)-4-hydroxy-1,1-dioxidotetrahydrothiophen-3-yl)hexahydro-1H-pyrrolo[3,2-c]pyridin-5(6H)-yl)phenyl)amino)-4-(cyclopropylamino)imidazo[2,1-f][1,2,4]triazine-7-carbonitrile]	1.04
COC(=O)N[C@H]1CCN(c2cc(C#N)cc(Nc3nc(NC4CC4)c4ncc(C#N)n4n3)c2Cl)CC1NC(C)C (stereo in doubt) [Example 752, methyl N-[(3R,4S)-1-(2-chloro-5-cyano-3-{[7-cyano-4-(cyclopropylamino)imidazo [2,1-f][1,2,4]triazin-2-yl]amino}phenyl)-3-[(propan-2-yl)amino]piperidin-4-yl]carbamate]	4.93
COC(=O)N[C@H]1CCN(c2cc(C#N)cc(Nc3nc(NC4CC4)c4ncc(C#N)n4n3)c2Cl)CC1NCC(C)(C)O (stereo in doubt) [Example 755, methyl N-[(3S,4S)-1-(2-chloro-5-cyano-3-{[7-cyano-4-(cyclopropylamino)imidazo [2,1-f][1,2,4]triazin-2-yl]amino}phenyl)-3-[(2-hydroxy-2-methylpropyl)amino]piperidin-4-yl]carbamate]	2.7
CCNc1nc(Nc2cc(C#N)cc(N3CC[C@@H](NC(=O)OC)C(NCC(C)(C)O)C3)c2Cl)nn2c(C#N)cnc12 (stereo in doubt) [Example 760, methyl N-[(3S,4R)-1-(2-chloro-5-cyano-3-{[7-cyano-4-(ethylamino)imidazo[2,1-f][1,2,4]triazin-2-yl]amino}phenyl)-3-[(2-hydroxy-2-methylpropyl)amino]piperidin-4-yl] carbamate]	1.2
CCNc1nc(Nc2cc(C#N)cc(N3CCC(NC(=O)OC)C(N[C@@H](C)C(N)=O)C3)c2Cl)nn2c(C#N)cnc12 (stereo in doubt) [Example 762, methyl N-[(3R,4S)-3-[(1-carbamoylethyl)amino]-1-(2-chloro-5-cyano-3-{[7-cyano-4-(ethylamino)imidazo[2,1-f][1,2,4]triazin-2-yl]amino}phenyl)piperidin-4-yl]carbamate]	2.1
COC(=O)NC1CCN(c2cc(C#N)cc(Nc3nc(NC4CC4)c4ncc(C#N)n4n3)c2Cl)C[C@@H]1N(C)CC#N (stereo in doubt) [Example 764, methyl N-[(3S,4S)-1-(2-chloro-5-cyano-3-{[7-cyano-4-(cyclopropylamino)imidazo [2,1-f][1,2,4]triazin-2-yl]amino}phenyl)-3-[(cyanomethyl)(methyl)amino]piperidin-4-yl]carbamate]	2
